In patent publication US12291508B2, “Hydrazide containing nuclear transport modulators and uses thereof” (Karyopharm Therapeutics Inc., priority 2011, dated 2025):
Where a name gives a salt, the structure may show the parent alone.

Experiments:
[1] = system: MM.1S multiple myeloma cell line; assay: CellTiter 96 AQueous One Solution cell proliferation assay, MM.1S; format: cell-based; details: Homo sapiens, MM1.S, 72 h of treatment, read-out: Cytotoxicity Assay
Description: The CellTiter 96® AQueous One Solution cell proliferation assay (Promega) was used on MM.1S multiple myeloma cell line to study the cytotoxic and cytostatic properties of the compounds. The assay is based on the cleavage of the tetrazolium salt, MTS, in the presence of an electron-coupling reagent PES (phenazine ethosulfate). The MTS tetrazolium compound is bioreduced by cells into a colored formazan product that is soluble in tissue culture medium. This conversion is presumably accomplished by NADPH or NADH produced by dehydrogenase enzymes in metabolically active cells. Assays are performed by adding a small amount of the CellTiter 96® AQueous One solution reagent directly to culture wells, incubating for 1-4 hours and then recording the absorbance at 490 nm with a 96-well plate reader.
The cells were seeded at 5×10^3 to 1.5×10^4 cells in each well of a 96-well plate in 100 μL of fresh culture medium and adherent cells were allowed to attach overnight. The stock solutions of the compounds were diluted in cell culture medium to obtain eight concentrations of each drug, ranging from 1 nM to 30 μM and DMSO at less than 1% v/v was used as a negative control. The resulting drug solutions were transferred onto the cells. After 72 h of treatment, 20 μl of CellTiter 96® AQueous reagent was added into each well of the 96-well assay plates and the plate was incubated at 37° C. for 1-4 hours in a humidified, 5% CO2 atmosphere. Then the absorbance of each well was recorded at 490 nm using a 96-well plate reader. In most cases, the assay was performed in triplicate and the results were presented as half maximal inhibitory concentration (IC50). Optical density versus compound concentration was plotted and analyzed using non-linear regression equations (IDBS XLfit) and the IC50 for each compound was calculated.

[2] = Brain to Plasma (B:P) ratio in mice; format: in vivo; details: 10 mg/kg po, 2 hours post-dose; for Kp at 2 h: mouse, brain/plasma
Description: Brain to Plasma (B:P) Ratio. […] Following collection, brain tissue was rinsed with cold saline, dried on filter paper, weighed and snap-frozen by placing on dry ice. All samples were stored frozen at approximately −80° C. until analysis. […] Plasma samples were treated with the identical method (except homogenization step) and the concentration of compound in each matrix was calculated based on generated standard curves.

[3] = Pharmacokinetic (PK) assay, plasma AUC in mice; format: in vivo; details: 10 mg/kg po; for AUC(0-inf): mouse, plasma
Description: AUC. Blood was collected from mice (N=3) to contribute to the total of 10 time points (pre-dose, 5 min, 15 min, 30 min, 1 hour, 2 hours, 4 hours, 8 hours, 12 hours and 24 hours post dose). Mice were bled on a rotating basis, each mouse contributing 3 time points to the blood collection. At the designated time points, animals were anaesthetized under isoflurane, and approximately 110 μL of blood per time point was collected via retro-orbital puncture into pre-cooled K2EDTA (anti-coagulant) tubes. Blood samples were put on wet ice and centrifuged (2000 g, 5 min at 4° C.) to obtain plasma within 30 minutes of sample collection. All samples were stored frozen at approximately −80° C. until analysis. Prior to analysis, samples were mixed with internal standard (dexamethasone) in acetonitrile, vortexed, centrifuged, and supernatant was injected for analysis. Concentration of compounds in plasma was determined using LC-MS-MS instrumentation (API 4000, Triple Quadruple with electrospray ionization; Acuity Ultra Performance Liquid Chromatography column C18, with MeOH and formic acid as organic solvents). AUC values were calculated using WinNonlin Professional 6.2 software package, non-compartmental pharmacokinetic model NCA200.

[4] = target: T1, CRM1-mediated nuclear export (Homo sapiens, UniProt O14980); assay: RevGFP assay, inhibition of nuclear export; format: cell-based; details: U2OS-RevGFP cells, about 1 hr incubation; read-out: Rev Export
T1 construct: endogenous in cells; host or cells: U2OS-RevGFP cells
Description: The ability of exemplary compounds of the invention to inhibit CRM1-mediated nuclear export was assessed in a RevGFP assay. Rev is a protein from human immunodeficiency virus type 1 (HIV-1) and contains a nuclear export signal (NES) in its C-terminal domain and a nuclear localization signal (NLS) in its N-terminal domain. Nuclear export of Rev protein is dependent on the classical NES/CRM1 pathway (Neville et al. 1997).
In this assay, U2OS-RevGFP cells were seeded onto clear-bottomed, black, 384-well plates the day before the experiment. Compounds were serially diluted 1:2 in DMEM, starting from 40 μM in a separate, 384-well plate, and then transferred onto the cells. The cells were incubated with compound for about 1 hr before fixation with 3.7% formaldehyde and nuclei staining with Hoechst 33258. The amount of GFP in cell nuclei was measured and the IC50 of each compound was determined (Kau et al. 2003).

T1 sequence (O14980 whole entry): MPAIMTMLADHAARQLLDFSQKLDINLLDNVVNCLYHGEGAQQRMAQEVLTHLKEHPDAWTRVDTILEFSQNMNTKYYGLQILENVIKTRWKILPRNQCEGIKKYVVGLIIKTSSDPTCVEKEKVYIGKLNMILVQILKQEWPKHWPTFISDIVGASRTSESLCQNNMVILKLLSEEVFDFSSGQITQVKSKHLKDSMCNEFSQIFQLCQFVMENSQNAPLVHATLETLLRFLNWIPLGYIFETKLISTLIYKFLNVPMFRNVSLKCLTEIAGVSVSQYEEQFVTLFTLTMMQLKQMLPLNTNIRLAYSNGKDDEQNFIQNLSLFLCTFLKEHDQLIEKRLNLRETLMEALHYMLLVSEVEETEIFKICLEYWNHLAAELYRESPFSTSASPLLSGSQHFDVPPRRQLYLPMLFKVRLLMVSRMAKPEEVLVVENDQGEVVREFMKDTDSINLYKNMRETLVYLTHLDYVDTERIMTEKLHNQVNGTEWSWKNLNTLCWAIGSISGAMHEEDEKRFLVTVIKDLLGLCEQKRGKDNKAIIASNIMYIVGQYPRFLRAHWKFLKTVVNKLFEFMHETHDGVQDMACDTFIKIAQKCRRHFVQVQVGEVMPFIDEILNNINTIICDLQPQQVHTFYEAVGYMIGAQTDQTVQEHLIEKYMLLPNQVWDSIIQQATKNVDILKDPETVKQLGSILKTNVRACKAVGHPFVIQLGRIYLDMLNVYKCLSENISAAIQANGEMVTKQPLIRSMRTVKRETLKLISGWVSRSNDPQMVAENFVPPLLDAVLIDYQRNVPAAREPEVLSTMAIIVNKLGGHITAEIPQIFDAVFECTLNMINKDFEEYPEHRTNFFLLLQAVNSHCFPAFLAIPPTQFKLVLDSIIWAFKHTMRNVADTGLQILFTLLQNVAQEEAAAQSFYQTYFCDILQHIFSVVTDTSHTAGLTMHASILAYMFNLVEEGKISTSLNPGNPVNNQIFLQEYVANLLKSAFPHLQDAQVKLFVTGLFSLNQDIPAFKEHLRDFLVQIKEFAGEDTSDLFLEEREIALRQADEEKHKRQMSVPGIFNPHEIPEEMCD

Row | SMILES | IC50 [1] [nM] | other results
1 | O=C(/C=C\n1cnc(-c2cc(C(F)(F)F)cc(C(F)(F)F)c2)n1)NNc1cccnc1 [Compound I-13, (Z)-3-(3-(3,5-bis(trifluoromethyl)phenyl)-1H-1,2,4-triazol-1-yl)-N′-(pyridin-3-yl)acrylohydrazide] | ≤ 1000 | –
2 | O=C(/C=C\n1cnc(-c2cc(C(F)(F)F)cc(C(F)(F)F)c2)n1)NNC1CCS(=O)(=O)C1 (centres unmarked) [Compound I-15, (Z)-3-(3-(3,5-bis(trifluoromethyl)phenyl)-1H-1,2,4-triazol-1-yl)-N′-(1,1-dioxotetrahydrothiophen-3yl)acrylohydrazide] | ≤ 1000 | –
3 | O=C(/C=C\n1cnc(-c2cc(C(F)(F)F)cc(C(F)(F)F)c2)n1)NN1CC(O)C1 [Compound I-26, (Z)-3-(3-(3,5-bis(trifluoromethyl)phenyl)-1H-1,2,4-triazol-1-yl)-N-(3-hydroxyazetidin-1-yl)acrylamide] | ≤ 1000 | –
4 | Cc1ccc(NNC(=O)/C=C\n2cnc(-c3cc(C(F)(F)F)cc(C(F)(F)F)c3)n2)nc1 [Compound I-10, (Z)-3-(3-(3,5-bis(trifluoromethyl)phenyl)-1H-1,2,4-triazol-1-yl)-N′-(5-methylpyridin-2-yl)acrylohydrazide] | ≤ 1000 | Kp at 2 h [2]: 0.77; AUC(0-inf) [3]: 4170 ng·h/mL
5 | O=C(/C=C\n1cnc(-c2cc(C(F)(F)F)cc(C(F)(F)F)c2)n1)NNc1cc(Cl)ncn1 [Compound I-12, (Z)-3-(3-(3,5-bis(trifluoromethyl)phenyl)-1H-1,2,4-triazol-1-yl)-N′-(6-chloropyrimidin-4-yl)acrylohydrazide] | ≤ 1000 | Kp at 2 h [2]: 0.13; AUC(0-inf) [3]: 24900 ng·h/mL; IC50 [4]: ≤ 1000 nM
6 | O=C(/C=C\n1cnc(-c2cc(C(F)(F)F)cc(C(F)(F)F)c2)n1)N1CC(F)(F)C1 [Compound X-3, reference compound] | ≤ 1000 | B:P [2]: 5.0; IC50 [4]: ≤ 1000 nM
7 | O=C(/C=C\n1cnc(-c2cc(C(F)(F)F)c(Cl)c(C(F)(F)F)c2)n1)NNc1cnccn1 [Compound I-24, (Z)-3-(3-(4-chloro-3,5-bis(trifluoromethyl)phenyl)-1H-1,2,4-triazol-1-yl)-N′-(pyrazin-2-yl)acrylohydrazide] | ≤ 1000 | Kp at 2 h [2]: 0.7; AUC(0-inf) [3]: 3350 ng·h/mL
8 | O=C(/C=C\n1cnc(-c2cc(C(F)(F)F)cc(C(F)(F)F)c2)n1)NNc1cnc2ccccc2n1 [Compound I-14, (Z)-3-(3-(3,5-bis(trifluoromethyl)phenyl)-1H-1,2,4-triazol-1-yl)-N′-(quinoxalin-2-yl)acrylohydrazide] | ≤ 1000 | –
9 | O=C(/C=C/n1cnc(-c2cc(C(F)(F)F)cc(C(F)(F)F)c2)n1)NNc1cnccn1 [Compound I-18, (E)-3-(3-(3,5-bis(trifluoromethyl)phenyl)-1H-1,2,4-triazol-1-yl)-N′-(pyrazin-2-yl) acrylohydrazide] | ≤ 1000 | AUC(0-inf) [3]: 7140 ng·h/mL
10 | O=C(/C=C\n1cnc(-c2cc(C(F)(F)F)cc(C(F)(F)F)c2)n1)NN1CCOCC1 [Compound I-22, (Z)-3-(3-(3,5-bis(trifluoromethyl)phenyl)-1H-1,2,4-triazol-1-yl)-N-morpholinoacrylamide] | ≤ 1000 | –
11 | Cc1cc(NNC(=O)/C=C\n2cnc(-c3cc(C(F)(F)F)cc(C(F)(F)F)c3)n2)nc(C)n1 [Compound I-17, (Z)-3-(3-(3,5-bis(trifluoromethyl)phenyl)-1H-1,2,4-triazol-1-yl)-N′-(2,6-dimethylpyrimidin-4-yl)acrylohydrazide] | ≤ 1000 | –
12 | O=C(/C=C\n1cnc(-c2cc(C(F)(F)F)cc(C(F)(F)F)c2)n1)NN1CCCCCC1 [Compound I-16, (Z)—N-(azepan-1-yl)-3-(3-(3,5-bis(trifluoromethyl)phenyl)-1H-1,2,4-triazol-1-yl)acrylamide] | ≤ 1000 | –
13 | O=C(/C=C\n1cnc(-c2cc(C(F)(F)F)cc(C(F)(F)F)c2)n1)NNC1CC1 [Compound I-25, (Z)-3-(3-(3,5-bis(trifluoromethyl)phenyl)-1H-1,2,4-triazol-1-yl)-N′-cyclopropylacrylohydrazide] | ≤ 1000 | –
14 | COc1cc(-c2ncn(/C=C\C(=O)OC(C)C)n2)cc(C(F)(F)F)c1 [Compound X-1, reference compound] | ≤ 1000 | AUCInf ([3]; 10 mg/kg): below the limit of detection; IC50 [4]: ≤ 1000 nM
15 | CN(NC(=O)/C=C\n1cnc(-c2cc(C(F)(F)F)cc(C(F)(F)F)c2)n1)c1cnccn1 [Compound I-8, (Z)-3-(3-(3,5-bis(trifluoromethyl)phenyl)-1H-1,2,4-triazol-1-yl)-N′-methyl-N′-(pyrazin-2-yl)acrylohydrazide] | ≤ 1000 | Kp at 2 h [2]: 2.1; AUC(0-inf) [3]: 4600 ng·h/mL; IC50 [4]: ≤ 1000 nM
16 | Cc1cccnc1N(C)NC(=O)/C=C\n1cnc(-c2cc(C(F)(F)F)cc(C(F)(F)F)c2)n1 [Compound I-9, (Z)-3-(3-(3,5-bis(trifluoromethyl)phenyl)-1H-1,2,4-triazol-1-yl)-N′-methyl-N′-(3-methylpyridin-2-yl)acrylohydrazide] | ≤ 1000 | –
17 | O=C(/C=C\n1cnc(-c2cc(C(F)(F)F)cc(C(F)(F)F)c2)n1)NNc1ccncc1 [Compound I-19, (Z)-3-(3-(3,5-bis(trifluoromethyl)phenyl)-1H-1,2,4-triazol-1-yl)-N′-(pyridin-4-yl) acrylohydrazide hydrochloride] | ≤ 1000 | Kp at 2 h [2]: 0.2; AUC(0-inf) [3]: 4020 ng·h/mL
18 | CC(C)OC(=O)/C=C\n1cnc(-c2cc(OC(C)C)cc(C(F)(F)F)c2)n1 [Compound X-2, reference compound] | ≤ 1000 | IC50 [4]: ≤ 1000 nM
19 | CCN1CCN(NC(=O)/C=C\n2cnc(-c3cc(C(F)(F)F)cc(C(F)(F)F)c3)n2)CC1 [Compound I-21, (Z)-3-(3-(3,5-bis(trifluoromethyl)phenyl)-1H-1,2,4-triazol-1-yl)-N-(4-ethylpiperazin-1-yl)acrylamide] | ≤ 1000 | –
20 | O=C(/C=C\n1cnc(-c2cc(C(F)(F)F)cc(C(F)(F)F)c2)n1)NN1CCCC1 [Compound I-6, (Z)-3-(3-(3,5-bis(trifluoromethyl)phenyl)-1H-1,2,4-triazol-1-yl)-N-(pyrrolidin-1-yl)acrylamide] | ≤ 1000 | –
21 | CN(NC(=O)/C=C\n1cnc(-c2cc(C(F)(F)F)cc(C(F)(F)F)c2)n1)c1cccnc1 [Compound I-11, (Z)-3-(3-(3,5-bis(trifluoromethyl)phenyl)-1H-1,2,4-triazol-1-yl)-N′-methyl-N′-(pyridin-3-yl)acrylohydrazide] | ≤ 1000 | –
22 | O=C(/C=C\n1cnc(-c2cc(C(F)(F)F)cc(C(F)(F)F)c2)n1)NN1CCN(Cc2ccccc2)CC1 [Compound I-20, (Z)-N-(4-benzylpiperazin-1-yl)-3-(3-(3,5-bis(trifluoromethyl)phenyl)-1H-1,2,4-triazol-1-yl) acrylamide] | ≤ 1000 | –
23 | O=C(/C=C\n1cnc(-c2cc(C(F)(F)F)cc(C(F)(F)F)c2)n1)NNc1ccncn1 [Compound I-23, (Z)-3-(3-(3,5-bis(trifluoromethyl)phenyl)-1H-1,2,4-triazol-1-yl)-N′-(pyrimidin-4-yl)acrylohydrazide] | ≤ 1000 | –
